US20240226063A1, “SOLUBLE ANALOGUES OF 6BIO THEREOF AND IMPLEMENTATION THEREOF” (JAWAHARLAL NEHRU CENTRE FOR ADVANCED SCIENTIFIC RESEARCH, priority 2021, published 2024)
Entries after “also recorded” stand apart in the source; their conditions may differ.

What was measured:
[1] = system: autophagy flux; experiment: Autophagy flux (levels of autophagosomes and autolysosomes); format: cell-based; details: cells, compared to growth media control
Description: The derivatives of 6-BIO such as the compound 6-methoxyindirubin oxime (6-MIO), compound 50 and compound 51 were synthesized to improve their water solubility. The effect of 6-BIO and the aforementioned derivatives of 6-BIO on autophagy flux in the form of autophagosomes and autolysosomes are depicted in FIG. 10. […] Thus, the derivatives have a better potency to restore neuronal function to wild type level in neurodevelopmental disorders and play a neuroprotective role in neurodegeneration.

[2] = system: Syngap1^+/− mice; experiment: Open field test (hyperactivity/motor function and anxiety); format: in vivo; details: 5 mg/kg intraperitoneal
Experimental: (§1) The ability of 6-BIO on the behavioural deficits related to neurodevelopmental disorders was observed based on its theoretical ability to correct synaptic plasticity, EGABA, and behavioural dysfunction in mice with mutated Syngap1 gene. Two populations of mice tested were: wild type (WT) mice and mice with mutated Syngap1 gene referred to as Syngap1^+/− mice. […] In the control group and the Syngap1^+/− mice, the subjects were administered with 5 mg/kg of 6-BIO based on the bodyweight of the subject. […] For example, 2-9, male mice were used.
Syngap1^+/− mice in groups I, II and III. […]

[3] = system: Syngap1^+/− mice; experiment: Novel object recognition test (memory); format: in vivo; details: for Novel Object Recognition (memory, discrimination index): 5 mg/kg intraperitoneal
Experimental: as §1
The wild type and Syngap1^+/− mice in the absence of any treatment were compared with the mice intra-peritoneally injected with 6-BIO and their behaviour was recorded with regards to recognition of a familiar object versus reaction to a novel object.

[4] = system: Syngap1^+/− mice; experiment: Social novelty test (social interaction and social preference); format: in vivo; details: for Social Interference (social interaction, time with stranger 1 vs empty jar) / Social Preference (time with stranger 2 vs stranger 1): 5 mg/kg intraperitoneal
Experimental: as §1
Social Novelty Test: Similar to the novel object recognition in Example 2, the social novelty test was performed for all age groups at 80 days. The social novelty test was performed based on the social interaction (SI) and social preference (SP) of the control wild type and Syngap1^+/− mice and wild type and Syngap1^+/− treated with 6-BIO. The social interaction was observed based on the time spent by the mice in isolation in comparison to time spent with one other mouse (stranger 1) and the social preference was observed based on the time spent with two different mice (stranger 1 and stranger 2)

[5] = system: Syngap1^+/− mice; experiment: Fluoroethyl-based seizure threshold; format: in vivo; details: intraperitoneal, Group III (P30-80), recorded P80
Experimental: For investigating the effect of 6-BIO on the wild type and Syngap1^+/− mice in group III (P30-P80), mice were injected intraperitoneally with 6-BIO. The subsequent fluoroethyl-based seizure threshold i.e., susceptibility of mice to epileptic seizures was evaluated and plotted as grouped data showing individual points for the involuntary and rhythmic muscular contractions and relaxations referred to as clonus.

[6] = system: Syngap1^+/− mice; experiment: Long term potential; format: in vivo; details: 5 mg/kg intraperitoneal
[7] = system: Syngap1^+/− mice; experiment: EGABA, Cl^− reversal potential; format: in vivo; details: 5 mg/kg intraperitoneal, Group I (P10-16), recorded P16
[8] = system: MPTP mice; experiment: MPTP mouse model of Parkinsonism (rotarod and open field test); format: in vivo; details: 5 mg/kg intraperitoneal, administered along with MPTP
Experimental: The effect of 6-BIO on neurodegenerative disorders such as Parkinson's was evaluated based on testing the ability of 6-BIO on toxic protein aggregates such as the SNCA/a-synuclein protein in mice (FIG. 9) and the modulation of the autophagy flux (FIG. 10). MPTP is a widely accepted mouse model to study Parkinsonism. […] For the study, mice were intraperitoneally injected with 6-BIO at a concentration of 5 mg/kg based on the body weight of the mice.
FIG. 9 and FIG. 10 illustrated the results observed on the effect of 6-BIO and its derivatives on neurodegenerative disorders. FIG. 9 depicts the effect of administration of 5 mg/kg of 6-BIO on (A) the latency to fall of various cohorts namely placebo mice, MPTP mice (Parkinsonian mice) and the MPTP mice administered with 6-BIO (MPTP+Co) was assessed by rotarod test (B) Representative trajectory maps of all mentioned cohorts as analysed by open field test. (C) Periphery distance travelled by all indicated cohorts as assessed by open field test. […]

[9] = Group II (P10-80), recorded P42/P80
[10] = Group III (P30-80), recorded P80

O=C1Nc2cc(Br)ccc2/C1=C1/Nc2ccccc2/C1=N\O [compound 50, (2Z,3E)-6′-bromo-3-(hydroxyimino)-[2,3′-biindolinylidene]-2′-one]
Levels of autolysosomes [1]: increased

COc1ccc2c(c1)NC(=O)C2=C1Nc2ccccc2C1=NO [6-MIO, 6-methoxyindirubin oxime]
Levels of autolysosomes [1]: increased | Levels of autophagosomes [1]: increased

O=C1Nc2cc(Br)ccc2/C1=C1/Nc2ccccc2/C1=N\O [6-BIO, (2′Z, 3′E)-6-Bromoindirubin-3′-oxime]
Open field, Anxiety (number of entries in the centre) ([2]; Group I (P10-16), recorded P16): anxiety was corrected | Open field, Motor function (hyperactivity, total distance travelled) ([2]; Group I (P10-16), recorded P16): hyperactivity was corrected | Open field, Anxiety (number of entries in the centre) ([2]; Group I (P10-16), recorded P80): anxiety was corrected; also recorded: ameliorates | Open field, Motor function (hyperactivity, total distance travelled) ([2]; Group I (P10-16), recorded P80): partial correction of hyperactivity; also recorded: ameliorates hyperactivity | Open field, Anxiety (number of entries in the centre) [2, 9]: anxiety was corrected | Open field, Motor function (hyperactivity, total distance travelled) [2, 9]: partial correction was observed | Open field, Anxiety (number of entries in the centre) [2, 10]: partial correction of the anxiety | Open field, Motor function (hyperactivity, total distance travelled) [2, 10]: no rescue behaviour | Novel Object Recognition (memory, discrimination index) ([3]; Group I (P10-16), recorded P80): Corrected | Novel Object Recognition (memory, discrimination index) [3, 9]: Corrected | Novel Object Recognition (memory, discrimination index) ([3]; Group III (P30-80), recorded P80, 5 mg/kg): corrected the memory deficits | Memory deficits (novel object recognition, discrimination index) ([3]; all three age groups, behaviour at 80 days): substantially corrected memory deficits | Social Interference (social interaction, time with stranger 1 vs empty jar) ([4]; Group I (P10-16), recorded P80): Corrected | Social Preference (time with stranger 2 vs stranger 1) ([4]; Group I (P10-16), recorded P80, 5 mg/kg): lack of improvement | Social Interference (social interaction, time with stranger 1 vs empty jar) [4, 9]: Corrected | Social Preference (time with stranger 2 vs stranger 1) [4, 9]: Corrected | Social Interference (social interaction, time with stranger 1 vs empty jar) [4, 10]: Corrected | Social Preference (time with stranger 2 vs stranger 1) [4, 10]: Corrected | Social interaction: time spent with stranger 1 as compared to the empty jar ([4]; all age groups, recorded at P80): comparable to wild type mice | Seizure threshold (fluoroethyl-based, tonic-clonic) [5]: corrected the seizure threshold | Long term potential [6, 9]: Corrected | Long term potential [6, 10]: Corrected | EGABA, Cl^− reversal potential [7]: Corrected | Effect on MPTP-induced neurodegeneration (rotarod latency to fall, open field periphery distance) [8]: protects neurons from degeneration | Levels of autophagosomes [1]: increased

O=C1Nc2cc(Br)ccc2/C1=C1/Nc2ccccc2/C1=N\OCCO [compound 51, (2Z,3E)-6′-bromo-3-((2-hydroxyethoxy)imino)-[2,3′-biindolinylidene]-2′-one]
Levels of autolysosomes [1]: increased | Levels of autophagosomes [1]: increased
